Entries after “also recorded” stand apart in the source; their conditions may differ.
Columns and labels:
[1] = tested on: Influenza A/WSN/33 virus; format: cell-based
[2] = tested on: Influenza A/Vietnam/1203/2004 (H5N1) virus; format: cell-based; settings: A549 cells; multiplicity of 0.01 pfu; 2 days
[3] = molecular target: influenza virus replication machinery (PB1, PB2, PA, nucleocapsid protein of A/WSN/33) (Influenza A virus, UniProt P03427+P03430+P15659+P15682); assay: Influenza virus mini-genome assay; format: cell-based, influenza virus strains A/WSN/33; settings: A549 cells; increasing ASN2 concentrations
[4] = tested on: IFN production by MDCK cells; format: cell-based, canine
[5] = tested on: IFN beta promoter (MDCK-IFNb-Luc); format: cell-based, canine
[6] = tested on: Influenza A/PR/8/34 virus; format: cell-based

SMILES	A/WSN/33 virus replication (HA titer) [1]	A/Vietnam/1203/2004 (H5N1) virus replication [2]	mini-genome luciferase activity [3]	IFN production (IFN bioassay, VSV-GFP growth) [4]	induction of IFNb-luc reporter expression [5]	A/PR/8/34 virus replication (HA titer) [6]
N=C(N/N=C1/C(=O)N(Cc2ccccc2)c2ccccc21)SCC(=O)Nc1ccccc1 [ASN2]	able to attenuate both A/PR/8/34 and A/WSN/33 virus replication in a dose-dependent manner; also recorded: attenuated	antiviral activity; also recorded: attenuated	decreased with increasing concentrations; also recorded: inhibited	able to induce biologically relevant levels of IFN once the Compound-treated cells are also infected with A/PR/8/34; also recorded: able to induce the production of IFN only if the treated cells are infected with influenza A/PR/8/34 virus	requires virus infection in order to induce IFN in the reporter assay; also recorded: depends on influenza A/PR/8/34 virus infection to induce IFN	able to attenuate both A/PR/8/34 and A/WSN/33 virus replication in a dose-dependent manner; also recorded: attenuated
NS(=O)(=O)c1ccc2nc3c(nc2c1)-c1cccc2cccc-3c12 [ENA51]					induces IFN independent of virus	

From patent US20120308608A1 (priority 2011, published 2012)
